Experimental data: paper PMC3004914, “Classification of Drugs Based on Properties of Sodium Channel Inhibition: A Comparative Automated Patch-Clamp Study” (PLoS ONE, 2010)
Where two headings read alike, the source gives them in different places. Each block holds one compound with its values, some of them ahead of it.

Key:
[1] = human plasma, cited from earlier work
[2] = target: T1, rNav1.2 sodium channels (HEK-293 cells) (Rattus norvegicus, UniProt P04775); test: 5 Hz train protocol, QPatch automated patch-clamp; assay type: cell-based; conditions: for τoff: 500 s assigned where irreversible; for Rev (reversibility): Rev = A5/A1 after washout; for potency estimated from few doses: −90 mV, read-out: IC50;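 on UD (use-dependence of the inhibition): UD = (A3/A4)/(A1/A2) as ratios of peak amplitudes from Figure 1A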
From the text: The dynamics of the onset and offset of inhibition was monitored using 5 Hz trains of five depolarizing pulses from a holding potential of −90 mV to −10 mV. The trains were repeated every 20 s. Drugs were applied after 10 control trains and 10 trains were delivered in the presence of the drug. The drug was then washed out, and the 10 trains were repeated.
We measured inhibition (Inh; from which we calculated IC50 values as described in Materials and Methods), reversibility of inhibition (Rev) and use-dependence (UD), as well as time constant of onset (τon) and offset (τoff). The calculation of IC50, quantification of Rev and UD, and the determination of time constants are illustrated in Figure 1A. Because τon should be concentration-dependent if we assume a single binding reaction, we excluded it from the analyses. […] Comments on the interpretation of these properties (Rev, […] and UD) are in Results S1.
(§1) A)–D) Peak amplitudes of evoked currents (5 Hz trains of 5 depolarizations from −90 to −10 mV) are plotted against time. Black dots: Control. Grey dots: Drug perfusion. […] Calculation of properties of inhibition is illustrated. […] E) Calculation of Kr and Ki values from steady-state availability curves.
(§2) HEK-293 cells stably expressing rNav1.2 sodium channels were obtained from NeuroSearch (Ballerup, Denmark).
(§3) Cells were automatically prepared for application to the chips (centrifuged and washed twice, then resuspended in extracellular solution) as described previously. Composition of the extracellular solution was: (in mM): 140 NaCl, 3 KCl, 1 CaCl2, 1 MgCl2, 0.1 CdCl2, 20 TEA-Cl, 5 HEPES, adjusted to pH 7.3, Osmolality: ∼320 mOsm.
(§4) All electrophysiological experiments were conducted on Qpatch-16 or QPatch HT instruments using QPlate™ chips. For a detailed description of the instrument and the patch-clamp chips see [37], [38]. Data were sampled at a frequency of 25 kHz and filtered at 5 kHz. […] The amplifier was controlled and the data were collected by the Sophion QPatch client software. For initial data analysis the QPatch software was used. Built-in amplifiers provide an improved method for series resistance compensation. Leak subtraction (based on a standard P/n protocol) was used to subtract the capacitive component of currents.
From this protocol we extracted five parameters, as illustrated in Figure 1A. We calculated inhibition of a single “cc” concentration: Inh = (amplitudectr – amplitudedrug)/amplitudectr.

[3] = target: T1, rNav1.2 sodium channels (HEK-293 cells); test: steady-state inactivation protocol (availability curves), QPatch automated patch-clamp; assay type: cell-based
From the text: as §1
Standard steady-state inactivation protocols were used to measure the shift of steady-state availability curve caused by the drugs. Currents were evoked by a 10 ms test pulse to −10 mV, preceded by 400 ms pre-pulses from −150 to −30 mV. […] Because the inhibition at hyperpolarized potentials (Inh−150), and the shift of the availability curves (ΔV1/2) are both concentration-dependent properties, we calculated affinities to hyperpolarized and depolarized states (“resting state affinity”: Kr, and “inactivated state affinity”: Ki), which, on the other hand, are concentration-independent characteristics of individual drugs. Calculation of Kr and Ki values are described in Materials and Methods, and illustrated in Figure 1E. State-dependence (SD) was quantified as the ratio Kr/Ki.
as §2, §3, §4
Inactivated affinity (Ki) values were calculated assuming a simple four-state model of drug binding and channel gating, using two separate methods: (1) from the shift of the availability curve (ΔV1/2), the slope of the Boltzmann fit of the availability curve (k) and Kr, using the formula described by Bean, Cohen and Tsien (Ki−ΔV1/2; see Figure 1E), or (2) from the apparent affinity (Kapp) at a certain pre-pulse potential, which was calculated from the inhibition (e.g. Inh−60) as described above, and the availability (h) at the same pre-pulse potential, using the formula from Kuo and Bean (Figure 1E). […] (Arithmetic means and SEM values are given in Results S7.)

[4] = HEK293, 100 μM, −90 mV holding potential, 5 Hz train, read-out: Inh (inhibited fraction)
[5] = HEK293, calculated from Inh at single concentration 100 μM, 5 Hz train
[6] = HEK293, −90 mV holding potential, 5 Hz train, read-out: Inh (inhibited fraction)
[7] = HEK293, calculated from Inh at single concentration 300 μM, 5 Hz train

T1 sequence (P04775 whole entry): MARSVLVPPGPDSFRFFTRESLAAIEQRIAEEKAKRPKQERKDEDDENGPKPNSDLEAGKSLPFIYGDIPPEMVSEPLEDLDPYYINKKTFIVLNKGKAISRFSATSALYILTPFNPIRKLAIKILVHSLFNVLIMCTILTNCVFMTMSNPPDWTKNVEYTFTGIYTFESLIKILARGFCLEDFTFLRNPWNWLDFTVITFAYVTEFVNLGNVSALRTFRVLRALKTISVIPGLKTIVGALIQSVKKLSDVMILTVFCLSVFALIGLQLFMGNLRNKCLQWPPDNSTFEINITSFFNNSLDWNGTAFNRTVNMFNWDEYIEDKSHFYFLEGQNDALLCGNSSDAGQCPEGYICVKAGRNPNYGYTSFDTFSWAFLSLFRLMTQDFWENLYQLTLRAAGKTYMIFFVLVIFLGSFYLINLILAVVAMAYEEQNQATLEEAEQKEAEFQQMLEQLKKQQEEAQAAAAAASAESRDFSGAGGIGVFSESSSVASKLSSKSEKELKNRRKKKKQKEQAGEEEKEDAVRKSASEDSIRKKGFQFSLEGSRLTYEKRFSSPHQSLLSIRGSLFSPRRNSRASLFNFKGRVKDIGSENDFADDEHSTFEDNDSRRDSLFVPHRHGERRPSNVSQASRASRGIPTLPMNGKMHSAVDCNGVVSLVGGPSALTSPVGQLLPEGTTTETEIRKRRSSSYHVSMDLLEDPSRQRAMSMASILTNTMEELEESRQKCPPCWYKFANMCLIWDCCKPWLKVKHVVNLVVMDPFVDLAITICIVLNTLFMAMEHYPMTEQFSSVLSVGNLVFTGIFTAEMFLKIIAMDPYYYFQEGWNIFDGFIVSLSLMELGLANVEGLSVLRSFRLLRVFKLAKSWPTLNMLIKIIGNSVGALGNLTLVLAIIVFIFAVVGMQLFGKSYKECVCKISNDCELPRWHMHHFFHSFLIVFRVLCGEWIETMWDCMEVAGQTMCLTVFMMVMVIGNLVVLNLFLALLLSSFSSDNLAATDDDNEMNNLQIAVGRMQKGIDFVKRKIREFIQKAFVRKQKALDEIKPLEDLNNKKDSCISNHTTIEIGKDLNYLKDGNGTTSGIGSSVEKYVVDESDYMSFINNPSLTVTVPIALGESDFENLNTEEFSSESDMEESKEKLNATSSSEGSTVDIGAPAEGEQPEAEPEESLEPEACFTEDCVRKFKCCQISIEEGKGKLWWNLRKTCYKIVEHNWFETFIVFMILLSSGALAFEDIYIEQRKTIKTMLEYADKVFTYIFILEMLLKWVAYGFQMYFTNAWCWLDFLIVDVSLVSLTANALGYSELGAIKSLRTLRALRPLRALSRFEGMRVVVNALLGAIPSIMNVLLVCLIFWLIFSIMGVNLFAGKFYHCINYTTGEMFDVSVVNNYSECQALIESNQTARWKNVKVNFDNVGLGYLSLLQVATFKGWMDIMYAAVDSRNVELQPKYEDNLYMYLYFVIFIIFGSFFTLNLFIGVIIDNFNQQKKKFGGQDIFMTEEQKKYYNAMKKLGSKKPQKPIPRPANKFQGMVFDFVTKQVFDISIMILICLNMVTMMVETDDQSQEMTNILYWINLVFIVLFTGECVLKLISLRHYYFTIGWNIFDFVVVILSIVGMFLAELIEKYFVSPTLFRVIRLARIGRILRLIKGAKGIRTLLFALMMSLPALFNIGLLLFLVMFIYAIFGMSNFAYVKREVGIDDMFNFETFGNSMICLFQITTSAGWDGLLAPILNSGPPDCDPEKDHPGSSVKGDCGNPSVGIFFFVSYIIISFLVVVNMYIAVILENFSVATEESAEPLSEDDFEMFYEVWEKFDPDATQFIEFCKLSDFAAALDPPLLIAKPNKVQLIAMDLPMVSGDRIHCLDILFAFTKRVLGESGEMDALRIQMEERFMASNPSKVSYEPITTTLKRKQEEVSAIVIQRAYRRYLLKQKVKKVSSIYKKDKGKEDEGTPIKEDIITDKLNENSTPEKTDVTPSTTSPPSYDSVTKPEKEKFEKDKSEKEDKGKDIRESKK

Compound: CN[C@H]1CC[C@@H](c2ccc(Cl)c(Cl)c2)c2ccccc21 [SRT, Sertraline]
plasma conc. ([1]; as printed in each cell): 0.14 [44] µg/ml
plasma conc. ([1]; as printed in the µg/ml cell): 0.409 µM

Compound: CNCCCC12CCC(c3ccccc31)c1ccccc12 [MPR, Maprotiline]
plasma conc. ([1]; as printed in each cell): 0.25 [45] µg/ml
plasma conc. ([1]; as printed in the µg/ml cell): 0.797 µM

Compound: NS(=O)(=O)Cc1noc2ccccc12 [ZON, Zonisamide]
plasma conc. ([1]; as printed in each cell): 28.4 [44] µg/ml
plasma conc. ([1]; as printed in the µg/ml cell): 133.82 µM
inhibition at 300 µM [2, 6]: 9%
potency estimated from few doses [2, 7]: 3030 µM

Compound: CNCCC(Oc1ccc(C(F)(F)F)cc1)c1ccccc1 (centres unmarked) [FLX, Fluoxetine]
plasma conc. ([1]; as printed in each cell): 0.38 [44] µg/ml
plasma conc. ([1]; as printed in the µg/ml cell): 1.099 µM

Compound: CNC1(C)C2CCC(C2)C1(C)C (centres unmarked) [MEC, Mecamylamine]
plasma conc. ([1]; as printed in each cell): 0.02 [60] µg/ml
plasma conc. ([1]; as printed in the µg/ml cell): 0.118 µM
IC50 compared to plasma concentration [2]: exceedingly high
inhibition at 100 µM [2, 4]: 5%
potency estimated from few doses [2, 5]: 2760 µM

The next lines start with results.

τon ([2]; 30 μM): 7.24 s
UD (use-dependence of the inhibition) ([2]; 30 μM, 5 Hz train): 1.25
τoff ([2]; 30 μM): 14.41 s
Rev (reversibility) ([2]; 30 μM): 0.18
inhibition at 30 µM ([2]; HEK293, 30 μM, −90 mV holding potential, 5 Hz train, read-out: Inh (inhibited fraction)): 28%
potency estimated from few doses ([2]; HEK293, calculated from Inh at single concentration 30 μM, 5 Hz train): 42.5 µM
ΔV1/2 (shift of availability curve) ([3]; 30 μM): −15.8 mV
inhibition at 30 µM ([3]; HEK293, 30 µM, read-out: Inh (inhibited fraction) at holding potential −150 mV): 20%
Ki ([3]; arithmetic mean, 30 µM, read-out: Ki-Kapp arith): 2.21 µM
Ki ([3]; arithmetic mean, 30 µM, read-out: Ki-ΔV1/2 arith): 1.14 µM
Kd ([3]; arithmetic mean, 30 µM, read-out: Kr arith): 144 µM
Kd ([3]; geometric mean, from Inh at −150 mV, 30 µM, read-out: Kr (resting state affinity)): 128 µM
Ki ([3]; geometric mean, from apparent affinity, 30 µM, read-out: Ki−Kapp (inactivated state affinity)): 1.74 µM
Ki ([3]; geometric mean, from shift of availability curve, 30 µM, read-out: Ki−ΔV1/2 (inactivated state affinity)): 0.73 µM
Compound: CN(C)CC/C=C1/c2ccccc2Sc2ccc(Cl)cc21 [CHX, Chlorprothixene]
plasma conc. ([1]; as printed in each cell): 0.07 [50] µg/ml
plasma conc. ([1]; as printed in the µg/ml cell): 0.200 µM

inhibition at 100 µM [2, 4]: 3%
potency estimated from few doses [2, 5]: 3230 µM
Compound: O=C(CCNNC(=O)c1ccncc1)NCc1ccccc1 [NIA, Nialamide]

inhibition at 300 µM [2, 6]: 7%
potency estimated from few doses [2, 7]: 3990 µM
Compound: CCN(CC)CCNC(=O)c1cc(S(C)(=O)=O)ccc1OC [TIA, Tiapride]
plasma conc. ([1]; as printed in each cell): 0.56 [51] µg/ml
plasma conc. ([1]; as printed in the µg/ml cell): 1.535 µM

inhibition at 300 µM [2, 6]: 7%
potency estimated from few doses [2, 7]: 3990 µM
Compound: CC1(C)O[C@@H]2[C@@H](CO[C@@]3(COS(N)(=O)=O)OC(C)(C)O[C@@H]23)O1 [TOP, Topiramate]
plasma conc. ([1]; as printed in each cell): 5.5 [44] µg/ml
plasma conc. ([1]; as printed in the µg/ml cell): 16.21 µM

inhibition at 300 µM [2, 6]: 14%
potency estimated from few doses [2, 7]: 2010 µM
Compound: CCN(CC)CCNC(=O)c1ccc(N)cc1 [PRC, Procainamide]

τon ([2]; 100 μM): 4.6 s
UD (use-dependence of the inhibition) ([2]; 100 μM, 5 Hz train): 1.04
τoff ([2]; 100 μM): 12.45 s
Rev (reversibility) ([2]; 100 μM): 0.92
inhibition at 100 µM [2, 4]: 15%
potency estimated from few doses [2, 5]: 565 µM
inhibition at 100 µM ([3]; HEK293, 100 µM, read-out: Inh (inhibited fraction) at holding potential −150 mV): 16%
Ki ([3]; arithmetic mean, 100 µM, read-out: Ki-Kapp arith): 27.4 µM
Ki ([3]; arithmetic mean, 100 µM, read-out: Ki-ΔV1/2 arith): 29.1 µM
Kd ([3]; arithmetic mean, 100 µM, read-out: Kr arith): 733 µM
Kd ([3]; geometric mean, from Inh at −150 mV, 100 µM, read-out: Kr (resting state affinity)): 604 µM
Ki ([3]; geometric mean, from apparent affinity, 100 µM, read-out: Ki−Kapp (inactivated state affinity)): 25.5 µM
Ki ([3]; geometric mean, from shift of availability curve, 100 µM, read-out: Ki−ΔV1/2 (inactivated state affinity)): 26 µM
Compound: CC(NC(C)(C)C)C(=O)c1cccc(Cl)c1 (centres unmarked) [BPR, Bupropion]
